Reference: paper PMC8773721, “A Small Molecule–Drug Conjugate (SMDC) Consisting of a Modified Camptothecin Payload Linked to an αVß3 Binder for the Treatment of Multiple Cancer Types” (Cancers, 2022)
Like-named read-outs stand apart in the source and are kept apart here. Marks after values point to notes of the source that are not given here.

Key:
[1] = biological target: T1, human P-gp-expressing LLC-PK1 cells (Homo sapiens, UniProt P08183); test: Flux assay in human P-gp-expressing LLC-PK1 (L-MDR1) cells; format: in vitro ADME; conditions: 2 μM, 2 h
T1 construct: Schinkel, Netherlands Cancer Institute; host or cells: LLC-PK1 porcine renal epithelial cells (L-MDR1)
T1 sequence (P08183 whole entry): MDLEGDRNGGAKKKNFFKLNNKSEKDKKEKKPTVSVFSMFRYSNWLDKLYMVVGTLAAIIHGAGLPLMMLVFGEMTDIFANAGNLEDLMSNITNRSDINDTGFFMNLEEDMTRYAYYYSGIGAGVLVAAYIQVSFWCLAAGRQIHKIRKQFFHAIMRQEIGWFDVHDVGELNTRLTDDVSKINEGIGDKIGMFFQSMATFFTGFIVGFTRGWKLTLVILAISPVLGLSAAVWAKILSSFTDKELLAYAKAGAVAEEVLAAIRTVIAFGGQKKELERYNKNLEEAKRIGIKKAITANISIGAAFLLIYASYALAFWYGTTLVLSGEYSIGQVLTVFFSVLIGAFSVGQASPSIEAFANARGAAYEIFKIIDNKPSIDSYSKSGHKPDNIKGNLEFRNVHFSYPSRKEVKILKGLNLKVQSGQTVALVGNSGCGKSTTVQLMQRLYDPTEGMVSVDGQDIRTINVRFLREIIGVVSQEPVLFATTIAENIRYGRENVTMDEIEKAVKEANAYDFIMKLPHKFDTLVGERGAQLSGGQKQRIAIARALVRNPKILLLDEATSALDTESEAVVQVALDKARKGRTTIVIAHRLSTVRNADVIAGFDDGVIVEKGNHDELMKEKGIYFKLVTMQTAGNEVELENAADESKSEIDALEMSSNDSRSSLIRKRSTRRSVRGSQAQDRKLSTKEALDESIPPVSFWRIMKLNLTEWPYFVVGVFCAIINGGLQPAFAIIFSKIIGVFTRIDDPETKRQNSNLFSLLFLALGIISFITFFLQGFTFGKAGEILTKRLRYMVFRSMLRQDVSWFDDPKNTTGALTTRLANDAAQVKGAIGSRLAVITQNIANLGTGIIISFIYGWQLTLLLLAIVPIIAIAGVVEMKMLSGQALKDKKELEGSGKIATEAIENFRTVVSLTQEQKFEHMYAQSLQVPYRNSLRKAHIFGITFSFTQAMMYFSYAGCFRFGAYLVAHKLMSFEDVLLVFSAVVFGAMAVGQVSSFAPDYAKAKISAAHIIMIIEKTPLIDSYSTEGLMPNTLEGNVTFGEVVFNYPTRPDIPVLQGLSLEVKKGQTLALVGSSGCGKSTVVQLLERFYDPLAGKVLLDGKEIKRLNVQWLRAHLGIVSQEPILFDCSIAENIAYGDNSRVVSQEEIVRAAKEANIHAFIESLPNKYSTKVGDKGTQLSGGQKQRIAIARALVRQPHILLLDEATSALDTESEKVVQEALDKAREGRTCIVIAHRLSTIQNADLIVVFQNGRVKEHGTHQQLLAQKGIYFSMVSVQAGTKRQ
Description: (§1) Before and after incubation for 2 h at 37 °C, samples were taken from both compartments and analyzed by LC-MS/MS. The apparent permeability coefficient (Papp) was calculated for both the apical to basolateral (A → B) and the basolateral to apical (B → A) direction as described by Schwab et al..

NCI-H1975-BCRP cells = test: Cytotoxicity (Alamar Blue), NCI-H1975-BCRP; format: cell-based, human; conditions: 72 h, no elastase
Description: (§2) Cells (6 × 10^3 cells/well) were plated in RPMI-1640 medium supplemented with 2% fetal calf serum (FCS) minimal media (MM) in 96-well plates and allowed to adhere at 37 °C/5% CO2 for 24 h. […] The cells were incubated at 37 °C/5% CO2 for 72 h. Then, Alamar Blue (#DAL1100, Invitrogen, Waltham, MA, USA) was added at a 1:1 ratio, the cells were incubated at 37 °C/5% CO2 for 4 h, and fluorescence (530 nm/590 nm) was measured with a VICTOR X2 Multilabel Reader (PerkinElmer, Waltham, MA, USA). The fluorescent signal was directly proportional to the number of viable cells. The half-maximal growth inhibition (IC50) was determined from the dose–response curves using the GraphPad Prism software.

NCI-H1975-P-gp cells = test: Cytotoxicity (Alamar Blue), NCI-H1975-P-gp; format: cell-based, human; conditions: 72 h, no elastase
Caco-2 cells = test: Flux assay in Caco-2 cells; format: in vitro ADME, human; conditions: 2 μM, 2 h
Description: as §1

NCI-H1975 cells = test: Cytotoxicity (Alamar Blue), parental NCI-H1975; format: cell-based, human; conditions: 72 h, no elastase
Description: as §2

[2] = test system: MX-1 TNBC xenograft model
Description: In the MX-1 efficacy study, the in vivo-grown tumor fragments (2 mm × 2 mm × 2 mm) were implanted s.c. in immunocompromised female NMRI nu/nu mice (8–10 weeks, 18–21 g, Taconic M&B A/S). The mice were randomized into control and treatment groups (n = 8) when the MX-1 tumors reached an average size of 25 mm^2.
(§3) Subcutaneous tumor growth was monitored by measuring tumor area (length × width) using a caliper. Animal body weight was monitored as an indicator of treatment-related toxicity. Measurement of tumor area and body weight was performed at least twice weekly. Individual animals were sacrificed when showing >20% body weight loss or when tumors reached a maximum area of ~200 mm^2 unless ulceration or other predefined humane endpoints were met. At study termination, the animals were sacrificed by cervical dislocation under CO2 anesthesia. T/C (treatment/control) ratios were calculated using the final mean tumor areas at study or control group termination. Treatment responses were defined on the last day of the vehicle group (Day 38 for 786-O, Day 86 for MX-1, Day 31 for NCI-H69, and Day 24 for SW480) using the RECIST criteria [59]. Progressive disease (PD) was defined as a greater than 20% increase in tumor size. Partial response (PR) was defined as a greater than 30% reduction in tumor size. Complete response (CR) was defined as an absence of any palpable tumor mass. No tumor growth or a slight reduction (<30%) or small increase (<20%) in tumor size was defined as stable disease (SD).

[3] = test system: SW480 CRC xenograft model; test: SW480 xenograft antitumor efficacy; format: in vivo, mouse; conditions: for Treatment/Control Ratio: Day 24; for Response: PR (partial response) / Response: SD (stable disease) / Response: PD (progressive disease): Day 24, RECIST
Description: In the SW480 efficacy study, immunocompromised female NMRI nu/nu mice (8–10 weeks, 18–21 g, Taconic M&B A/S) were inoculated subcutaneously with 3 × 10^6 SW480 cells suspended in 50% Matrigel®/50% medium. The mice were randomized into control and treatment groups (n = 8) when the SW480 tumors reached an average size of 25 mm^2.
Subcutaneous tumor growth was monitored by measuring tumor area (length × width) using a caliper. Animal body weight was monitored as an indicator of treatment-related toxicity. Measurement of tumor area and body weight was performed at least twice weekly. Individual animals were sacrificed when showing >20% body weight loss or when tumors reached a maximum area of ~200 mm^2 unless ulceration or other predefined humane endpoints were met. At study termination, the animals were sacrificed by cervical dislocation under CO2 anesthesia. T/C (treatment/control) ratios were calculated using the final mean tumor areas at study or control group termination. […] Progressive disease (PD) was defined as a greater than 20% increase in tumor size. Partial response (PR) was defined as a greater than 30% reduction in tumor size. Complete response (CR) was defined as an absence of any palpable tumor mass. No tumor growth or a slight reduction (<30%) or small increase (<20%) in tumor size was defined as stable disease (SD).

[4] = test system: NCI-H69 SCLC xenograft model; test: NCI-H69 xenograft antitumor efficacy and tolerability; format: in vivo, mouse; conditions: for Treatment/Control Ratio / Response: PD (progressive disease) / Response: SD (stable disease): NCI-H69, Day 31; for Response: PD (progressive disease) / Response: SD (stable disease): RECIST
Description: Irinotecan, doxorubicin, topotecan, cisplatin, and 5-FU were diluted in 0.9% NaCl.
In the NCI-H69 efficacy study, immunocompromised female NMRI nu/nu mice (8–10 weeks, 18–21 g, Taconic M&B A/S) were inoculated s.c. with 3 × 10^6 NCI-H69 cells suspended in 50% Matrigel®/50% medium. The mice were randomized into control and treatment groups (n = 8) when the NCI-H69 tumors reached an average size of 25 mm^2.
as §3

[5] = MX-1, irinotecan 15 mg/kg, 4 on/3 off, i.v., Day 86, RECIST
[6] = MX-1, irinotecan 30 mg/kg, Q2/3Dx9, i.v., Day 86, RECIST
[7] = irinotecan 15 mg/kg, 4 on/3 off, i.v.
[8] = irinotecan 30 mg/kg, Q2/3D, i.v.
[9] = topotecan 0.5 mg/kg, 7 on/7 off, i.v.
[10] = cisplatin 3 mg/kg, Q3Dx14, i.p.

CCc1c2c(nc3ccc(O)cc13)-c1cc3c(c(=O)n1C2)COC(=O)[C@]3(O)CC [SN38]
Efflux Ratio [1]: 16
Permeability A → B [1]: 1 ×10⁻⁶ cm/s
IC50 (NCI-H1975-BCRP cells): 512 nM
IC50 (NCI-H1975-P-gp cells): 141 nM
Efflux Ratio (Caco-2 cells): 36
Permeability A → B (Caco-2 cells): 0.8 ×10⁻⁶ cm/s
IC50 (NCI-H1975 cells): 45 nM

CCc1c2c(nc3ccc(OC(=O)N4CCC(N5CCCCC5)CC4)cc13)-c1cc3c(c(=O)n1C2)COC(=O)[C@]3(O)CC [Irinotecan]
Treatment/Control Ratio ([2]; MX-1, irinotecan 15 mg/kg, 4 on/3 off, i.v., Day 86): 0.002 ***
Response: CR (complete response) [2, 5]: CR: 4/8, PR: 4/8
Response: PR (partial response) [2, 5]: CR: 4/8, PR: 4/8
Tumor regrowth after treatment was stopped ([2]; MX-1, irinotecan 30 mg/kg, Q2/3Dx9, i.v.): clear tumor regrowth
Treatment/Control Ratio ([2]; MX-1, irinotecan 30 mg/kg, Q2/3Dx9, i.v., Day 86): 0.15 ***^, #
Response: PR (partial response) [2, 6]: 5/7
Response: SD (stable disease) [2, 6]: 2/7
Relative body weight loss ([2]; mouse, in vivo): > 10%
Tumor regrowth after treatment cessation ([3]; all VIP236- and irinotecan-treated mice): moderate tumor regrowth
Treatment/Control Ratio [3, 7]: 0.13 ***
Response: PR (partial response) [3, 7]: 5/8
Response: SD (stable disease) [3, 7]: 3/8
Treatment/Control Ratio [3, 8]: 0.15 ***
Response: PD (progressive disease) [3, 8]: 1/8
Response: PR (partial response) [3, 8]: 4/8
Response: SD (stable disease) [3, 8]: 3/8

CC[C@@]1(O)C(=O)OCc2c1cc1n(c2=O)Cc2cc3c(CN(C)C)c(O)ccc3nc2-1 [Topotecan]
Treatment/Control Ratio [4, 9]: 0.20 ***
Response: PD (progressive disease) [4, 9]: 7/8
Response: SD (stable disease) [4, 9]: 1/8
Relative body weight loss ([4]; NCI-H69 tumor-bearing mice, topotecan 0.5 mg/kg, 7 on/7 off, i.v.): > 10%

COc1cccc2c1C(=O)c1c(O)c3c(c(O)c1C2=O)C[C@@](O)(C(=O)CO)C[C@@H]3O[C@H]1C[C@H](N)[C@H](O)[C@H](C)O1 [Doxorubicin]
Treatment/Control Ratio ([2]; MX-1, doxorubicin 10 mg/kg, Q14Dx2, i.v., Day 86): 0.49 ***

O=c1[nH]cc(F)c(=O)[nH]1 [5-FU, 5-fluorouracil]
Treatment/Control Ratio ([3]; 5-FU 100 mg/kg, Q7D, i.p.): 0.54 ***
Response: PD (progressive disease) ([3]; 5-FU 100 mg/kg, Q7D, i.p.): PD: 8/8

N.N.[Cl][Pt][Cl] [Cisplatin]
Treatment/Control Ratio [4, 10]: 0.25 ***
Response: PD (progressive disease) [4, 10]: 7/8
Response: SD (stable disease) [4, 10]: 1/8
Relative body weight loss ([4]; NCI-H69 tumor-bearing mice, cisplatin 3 mg/kg, Q3Dx14, i.p.): > 10%
Animal deaths ([4]; NCI-H69 tumor-bearing mice, cisplatin 3 mg/kg, Q3Dx14, i.p., Day 46): one animal died
